Measurements taken from patent US7524853B2 (Solvay Pharmaceuticals B.V., priority 2003, dated 2009).

Legend:
Type in all cases: cell-based
[1] = molecular target: T1, 17β-hydroxysteroid dehydrogenase type 1 (17β-HSD type 1) (Homo sapiens, UniProt P14061); test: Inhibition of 17β-HSD type 1 in MCF-7 cells stably expressing the isoenzyme (tritium labeled estrone conversion, HPLC); conditions: MCF-7 cells expressing 17β-HSD type 1, 2 nM tritium labeled estrone; for % Inhibition HSD1 1 μM / inhibition at 1 µM: 1 μM test compound; for % Inhibition HSD1 10 μM / inhibition at 10 µM: 10 μM test compound; for inhibition at 1 µM / inhibition at 10 µM: MCF7; for inhibition at 1 µM: read-out: % Inhibition HSD1 1 μM; for inhibition at 10 µM: read-out: % Inhibition HSD1 10 μM
T1 construct: expressed in transfected cells; host or cells: MCF-7
T1 sequence (P14061 1-328): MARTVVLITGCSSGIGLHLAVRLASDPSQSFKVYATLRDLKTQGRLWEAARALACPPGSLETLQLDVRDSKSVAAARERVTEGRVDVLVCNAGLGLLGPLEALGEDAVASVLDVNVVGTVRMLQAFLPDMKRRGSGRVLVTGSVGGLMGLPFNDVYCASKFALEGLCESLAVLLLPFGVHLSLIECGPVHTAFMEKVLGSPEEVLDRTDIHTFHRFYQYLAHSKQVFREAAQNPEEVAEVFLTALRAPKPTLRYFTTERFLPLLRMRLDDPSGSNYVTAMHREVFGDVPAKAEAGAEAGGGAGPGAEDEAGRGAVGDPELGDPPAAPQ
How it was run: (§1)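 Cells: stable MCF-7 transfectants per isoenzyme. Step one, add compound (two concentrations) plus 2 nM labelled substrate to growth medium. Step two, remove medium at a set time and stop with trichloroacetic acid. Step three, quantify conversion by HPLC with flow scintillation.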

[2] = molecular target: T2, 17β-hydroxysteroid dehydrogenase type 2 (17β-HSD type 2) (Homo sapiens, UniProt P37059); test: Inhibition of 17β-HSD type 2 in MCF-7 cells stably expressing the isoenzyme (tritium labeled estradiol conversion, HPLC); conditions: MCF-7 cells expressing 17β-HSD type 2, 2 nM tritium labeled estradiol; for % Inhibition HSD2 1 μM / inhibition at 1 µM: 1 μM test compound; for % Inhibition HSD2 10 μM / inhibition at 10 µM: 10 μM test compound; for inhibition at 1 µM / inhibition at 10 µM: MCF7; for inhibition at 1 µM: read-out: % Inhibition HSD2 1 μM; for inhibition at 10 µM: read-out: % Inhibition HSD2 10 μM
T2 construct: expressed in transfected cells; host or cells: MCF-7
T2 sequence (P37059 1-387): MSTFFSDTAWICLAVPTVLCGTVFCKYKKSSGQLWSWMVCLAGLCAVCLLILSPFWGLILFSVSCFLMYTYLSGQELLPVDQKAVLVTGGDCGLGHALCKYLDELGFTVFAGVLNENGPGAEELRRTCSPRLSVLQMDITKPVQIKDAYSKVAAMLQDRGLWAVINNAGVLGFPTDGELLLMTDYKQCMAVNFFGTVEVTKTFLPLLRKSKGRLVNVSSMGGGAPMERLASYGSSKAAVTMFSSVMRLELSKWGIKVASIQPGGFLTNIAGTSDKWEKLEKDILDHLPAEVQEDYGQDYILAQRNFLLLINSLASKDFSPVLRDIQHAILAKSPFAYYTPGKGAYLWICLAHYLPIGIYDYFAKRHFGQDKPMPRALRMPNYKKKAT
How it was run: as §1

[3] = molecular target: T3, 17β-hydroxysteroid dehydrogenase type 3 (17β-HSD type 3) (Homo sapiens, UniProt P37058); test: Inhibition of 17β-HSD type 3 in MCF-7 cells stably expressing the isoenzyme (tritium labeled androstenedione conversion, HPLC); conditions: MCF-7 cells expressing 17β-HSD type 3, 2 nM tritium labeled androstenedione; for % Inhibition HSD3 1 μM / inhibition at 1 µM: 1 μM test compound; for % Inhibition HSD3 10 μM / inhibition at 10 µM: 10 μM test compound; for inhibition at 1 µM / inhibition at 10 µM: MCF7; for inhibition at 1 µM: read-out: % Inhibition HSD3 1 μM; for inhibition at 10 µM: read-out: % Inhibition HSD3 10 μM
T3 construct: expressed in transfected cells; host or cells: MCF-7
T3 sequence (P37058 1-310): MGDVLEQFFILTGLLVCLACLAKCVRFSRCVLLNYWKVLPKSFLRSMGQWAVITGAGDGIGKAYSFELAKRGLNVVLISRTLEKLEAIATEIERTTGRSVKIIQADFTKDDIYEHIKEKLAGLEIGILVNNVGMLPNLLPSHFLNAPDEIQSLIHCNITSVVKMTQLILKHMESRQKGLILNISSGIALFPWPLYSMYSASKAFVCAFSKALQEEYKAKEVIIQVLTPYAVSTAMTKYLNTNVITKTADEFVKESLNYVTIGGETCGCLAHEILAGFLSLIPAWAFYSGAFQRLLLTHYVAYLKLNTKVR
How it was run: as §1

Structure (SMILES) | % Inhibition HSD1 1 μM [1] [%] | % Inhibition HSD1 10 μM [1] [%] | % Inhibition HSD2 1 μM [2] [%] | % Inhibition HSD2 10 μM [2] [%] | % Inhibition HSD3 1 μM [3] [%] | % Inhibition HSD3 10 μM [3] [%] | inhibition at 1 µM [1] [%] | inhibition at 10 µM [1] [%] | inhibition at 1 µM [2] [%] | inhibition at 10 µM [2] [%] | inhibition at 1 µM [3] [%] | inhibition at 10 µM [3] [%]
CC(C)=Cc1nc2sc3c(O)cccc3c2c(=O)n1Cc1ccccc1 [No. 667] | 20.1 | 51.9 | 20.9 | 63.7 | 16.9 | 37.0 | – | – | – | – | – | –
COc1cc(-c2nc3sc4c(c3c(=O)n2CC(C)C)CCC(Br)C4=O)cc(OC)c1OC (stereo not drawn) [No. 115, 7-Bromo-3-isobutyl-2-(3,4,5-trimethoxyphenyl)-6,7-dihydro-3H,5H-benzo[4,5]thieno[2,3-d]pyrimidine-4,8-dione] | – | – | – | – | – | – | 22.9 | 70.3 | 18.7 | 19.5 | 7.6 | 20.7
COc1cc(-c2nc3sc4c(c3c(=O)n2Cc2ccco2)CCCC4=O)cc(OC)c1OC [No. 120, 3-Furan-2-ylmethyl-2-(3,4,5-trimethoxylphenyl)-6,7-dihydro-3H,5H-benzo[4,5]thieno[2,3-d]pyrimidine-4,8-dione] | – | – | – | – | – | – | 17.6 | 52.1 | 19.9 | 35.4 | 12.4 | 38.4
Cc1nc2sc3c(c2c(=O)n1-c1ccccc1)CCCC3=O [No. 25, 2-Methyl-3-phenyl-6,7-dihydro-3H,5H-benzo[4,5]thieno[2,3-d]pyrimidine-4,8-dione] | – | – | – | – | – | – | 5.9 | 13.8 | 5.5 | 7.9 | 25.7 | 29
COc1cc(-c2nc3sc4c(O)cccc4c3c(=O)n2CC(C)C)c(Br)c(OC)c1OC [No. 117, 8-Hydroxy-3-isobutyl-2-(2-bromo-3,4,5-trimethoxyphenyl)-3H-benzo[4,5]thieno[2,3-d]pyrimidin-4-one] | – | – | – | – | – | – | 39.3 | 62.2 | 19.7 | 20.7 | 19.7 | 44.1
CCC(C)Cn1c(-c2cc(OC)c(OC)c(OC)c2)nc2sc3c(c2c1=O)CCC(Br)C3=O (stereo not drawn) [No. 127, 7-Bromo-3-(2-methylbutyl)-2-(3,4,5-trimethoxyphenyl)-6,7-dihydro-3H,5H-benzo[4,5]thieno[2,3-d]pyrimidine-4,8-dione] | – | – | – | – | – | – | 40.3 | 91.3 | -0.4 | 5.7 | 4.8 | 29.3
COc1cccc(-c2nc3sc4c(O)cccc4c3c(=O)n2Cc2ccccc2)c1 [No. 83, 3-Benzyl-8-hydroxy-2-(m-methoxyphenyl)-3H-benzo[4,5]thieno[2,3-d]pyrimidin-4-one] | – | – | – | – | – | – | 25.4 | 26.3 | 26.1 | 60.1 | 13.5 | 21
O=C1c2sc3nc(-c4ccc(Br)s4)n(Cc4ccccc4)c(=O)c3c2CCC1Br (stereo not drawn) [No. 65, 3-Benzyl-7-bromo-2-(5-bromothiophen-2-yl)-6,7-dihydro-3H,5H-benzo[4,5]thieno[2,3-d]pyrimidine-4,8-dione] | – | – | – | – | – | – | 1.2 | 7.8 | 19.2 | 34.6 | 5 | 38
CCC(C)Cn1c(-c2cc(OC)c(OC)c(OC)c2Cl)nc2sc3c(O)cccc3c2c1=O (stereo not drawn) [No. 143, 2-(2-Chloro-3,4,5-trimethoxyphenyl)-8-hydroxy-3-(2-methylbutyl)-3H-benzo[4,5]thieno[2,3-d]pyrimidin-4-one] | – | – | – | – | – | – | 40.1 | 74.2 | 4.5 | 17.7 | 12.5 | 52.1
COC(=O)c1nc2sc3c(c2c(=O)n1Cc1ccccc1)CCCC3=O [No. 32, 3-Benzyl-4,8-dioxo-3,4,5,6,7,8-hexahydro-benzo[4,5]thieno[2,3-d]pyrimidine-2-carboxylic acid methyl ester] | – | – | – | – | – | – | 37.2 | 86.6 | 9.8 | 19.5 | 9.6 | 70
COc1ccc(-c2nc3sc4c(c3c(=O)n2Cc2ccccc2)CCC(C=O)=C4Cl)cc1 [No. 14] | – | – | – | – | – | – | 8.6 | 29.7 | 0.5 | 18.8 | 22.7 | 80.8
COCCn1c(-c2cccs2)nc2sc3c(c2c1=O)CCCC3=O [No. 75, 3-(2-Methoxyethyl)-2-thiophen-2-yl-6,7-dihydro-3H,5H-benzo[4,5]thieno[2,3-d]pyrimidine-4,8-dione] | – | – | – | – | – | – | 14.5 | 11.9 | 20.2 | 23.1 | 5 | 17
O=c1c2c(nc(Cc3ccccc3)n1CCc1cccs1)sc1c(O)cccc12 [No. 641] | 20.4 | 35.0 | 10.5 | 36.9 | 13.2 | 55.7 | – | – | – | – | – | –
O=C1CCCc2c1sc1nc(-c3cccs3)n(Cc3ccccc3)c(=O)c21 [No. 62, 3-Benzyl-2-thiophen-2-yl-6,7-dihydro-3H,5H-benzo[4,5]thieno[2,3-d]pyrimidine-4,8-dione] | – | – | – | – | – | – | 25.8 | 32 | 18.9 | 26.4 | 18 | 28
COc1cc(-c2nc3sc4c(O)cc(C)cc4c3c(=O)n2Cc2ccccc2)c(Br)c(OC)c1OC [No. 690, 3-Benzyl-2-(2-bromo-3,4,5-trimethoxyphenyl)-8-hydroxy-6-methyl-3H-benzo[4,5]thieno[2,3-d]pyrimidin-4-one] | – | – | – | – | – | – | 17.3 | 19.2 | 14.2 | 23.5 | -2.7 | 6.4
O=c1c2c(nc(-c3cccs3)n1Cc1ccccc1)sc1c(O)cccc12 [No. 67, 3-Benzyl-8-hydroxy-2-thiophen-2-yl-3H-benzo[4,5]thieno[2,3-d]pyrimidine-4-one] | – | – | – | – | – | – | 14.7 | 29.6 | 55.2 | 80.3 | 19.1 | 33.4
COCCn1c(-c2cc(OC)c(OC)c(OC)c2)nc2sc3c(c2c1=O)CCCC3 [No. 108, 3-(2-Methoxyethyl)-2-(3,4,5-trimethoxyphenyl)-5,6,7,8-tetrahydro-3H-benzo[4,5]thieno[2,3-d]pyrimidin-4-one] | – | – | – | – | – | – | 5.2 | 11 | 9.6 | 7.4 | 0.8 | 9.8
